Earlier results in patent US7452901B2, “Anti-cancer phosphonate analogs” (Gilead Sciences, Inc., priority 2003, dated 2008).

Target: T1, purine nucleotide phosphorylase (Homo sapiens, UniProt P00491)
T1 sequence (P00491 1-289): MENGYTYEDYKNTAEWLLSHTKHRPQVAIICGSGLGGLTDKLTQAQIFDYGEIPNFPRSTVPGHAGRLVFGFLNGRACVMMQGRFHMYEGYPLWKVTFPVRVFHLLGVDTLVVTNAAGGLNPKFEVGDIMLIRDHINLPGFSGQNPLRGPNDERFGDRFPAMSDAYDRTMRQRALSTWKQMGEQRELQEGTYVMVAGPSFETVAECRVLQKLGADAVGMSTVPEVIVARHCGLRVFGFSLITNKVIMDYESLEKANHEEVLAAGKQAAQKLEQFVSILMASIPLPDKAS
Conditions: disclosed at the ACS meeting (2000)

IC50: 20 nM
SMILES: Nc1nc2c([C@@H](CO)c3ccccc3F)c[nH]c2c(=O)[nH]1 [PNP-405]
